For 22 compounds, photoluminescence quantum yield results are on record in the Deep4Chem optical property database.

This series in a line: photoluminescence quantum yield (fraction); solvent given as SMILES.

Regarding `COc1ccc(C2C3=C(CCCC3=O)Nc3c2c(=O)oc2ccccc32)cc1` (stereo unspecified), where the note is “in CS(C)=O”, the photoluminescence quantum yield was found to be 0.26.

With `COc1cccc(OC)c1-c1c2ccccc2c(-c2c(OC)cccc2OC)c2ccccc12`, for the setting “in C1CCCCC1”, the photoluminescence quantum yield turned out to be 0.94.

On to `CC1=CC(C)=[N+]2C1=C(c1ccc(N(C)C)cc1)c1c(C)cc(C)n1[B-]2(F)F`, for which the photoluminescence quantum yield is, setting by setting: (in C1CCOC1) 0.014; (in CC#N) 0.005; (in CC(=O)C(C)(C)C) 0.015; (in CC(C)=O) 0.009; (in CCCCCC) 0.441; (in CCOC(C)=O) 0.011.

Turning to `CCCCN1C(=O)c2ccc3c4ccc5c6c(cc(Br)c(c7ccc(c2c37)C1=O)c64)C(=O)N(CCCC)C5=O`, under “in ClCCl”, the photoluminescence quantum yield came to 0.92.

Take `CC1=C(c2ccccc2)C(C)=[N+]2C1=C(c1c(-c3ccccn3)nc3ccccn13)c1c(C)c(-c3ccccc3)c(C)n1[B-]2(F)F`: under “in ClCCl”, the photoluminescence quantum yield was 0.785.

For `CC(C)(C)c1ccc(C2=C(c3ccc(N4c5ccccc5C(C)(C)c5ccccc54)cc3)S(=O)(=O)c3c2sc(-c2ccc(N4c5ccccc5C(C)(C)c5ccccc54)cc2)c3-c2ccc(C(C)(C)C)cc2)cc1`, for the setting “in C1CCOC1”, the photoluminescence quantum yield was determined as 0.021.

In turn, `O=C1OC(=O)c2cc(Oc3ccccc3)c3c4ccc5c6c(cc(Oc7ccccc7)c(c7ccc1c2c73)c64)C(=O)OC5=O` came in with a photoluminescence quantum yield (in C1CCOC1) of 0.5, a photoluminescence quantum yield (in CN1CCCC1=O) of 0.2 and a photoluminescence quantum yield (in CN(C)C=O) of 0.6.

`Nc1ccc2c(c1)C(=O)c1ccc(N)cc1C2=O` gave a photoluminescence quantum yield (in CC#N) of 0.016; a photoluminescence quantum yield (in CC(C)O) of 0.008; a photoluminescence quantum yield (in CCO) of 0.0007; a photoluminescence quantum yield (in CCOC(C)=O) of 0.028; a photoluminescence quantum yield (in CO) of 0.0002.

As to `Cc1ccc(/C2=c3\cc/c(o3)=C(\c3ccc(C)cc3)c3ccc([nH]3)-c3ccc4n3[P-](=O)(=O)[N+]3=C(C=CC3=C4c3ccco3)c3ccc2[nH]3)cc1`, the photoluminescence quantum yield (in ClC(Cl)Cl) turned out to be 0.09.

As to `CN(C)c1cc(-c2ccccc2)cc2cc(C#Cc3ccncc3)ccc12`, for the setting “in ClCCl”, the photoluminescence quantum yield came out at 0.72.

In turn, `c1ccc(-c2cc(-c3ccc(N4c5ccccc5C(c5ccccc5)(c5ccccc5)c5ccccc54)cn3)nc(-c3ccccc3)n2)cc1` had a photoluminescence quantum yield (in O=P(c1ccccc1)(c1ccccc1)c1ccccc1Oc1ccccc1P(=O)(c1ccccc1)c1ccccc1) of 0.86.

As for `C=C[Si](c1c2ccccc2cc2ccccc12)(c1c2ccccc2cc2ccccc12)c1c2ccccc2cc2ccccc12`, the photoluminescence quantum yield (in ClC(Cl)Cl) was determined as 0.017.

On to `Cc1cc(C)nc(N)n1`, for which the photoluminescence quantum yield runs as follows: (in CCO) 0.15; (in CO) 0.248; (in O) 0.048.

Compound `CC(C)[Si](C#Cc1c2cc3ccccc3cc2c(C#C[Si](C)(C)C)c2cc3ccccc3cc12)(C(C)C)C(C)C` displayed a photoluminescence quantum yield (in ClCCl) of 0.13.

`F[B-]1(F)Oc2ccccc2-c2nc(-c3ccccc3)c3ccccc3[n+]21` displayed a photoluminescence quantum yield (in Cc1ccccc1) of 0.013.

On to `COc1ccc(-c2nc(-c3ccccc3)c(N(C)C)[se]2)cc1`, for which the photoluminescence quantum yield (in ClC(Cl)Cl) amounted to 0.039.

In the case of `C[C@]12SC(=O)C=C1c1nc(-c3ccccc3)[nH]c1C1=CC(=O)S[C@@]12C`, the photoluminescence quantum yield (in CC#N) worked out at 0.16.

For `CC[N+](CC)=c1ccc2c(-c3ccccc3C(=O)O)c3c(=O)oc4c5c6c(cc4c3oc-2c1)CCCN6CCC5`, the photoluminescence quantum yield worked out at 0.01 (in CCO) and 0.09 (in ClC(Cl)Cl).

For the compound `CCCC1(CCC)c2cc(-c3ccc(C(C)(C)C)cc3)ccc2-c2ccc(-c3ccc4c(c3)C(CCC)(CCC)c3cc(-c5ccc6c(c5)C(CCC)(CCC)c5cc(-c7ccc8c(c7)C(CCC)(CCC)c7cc(-c9ccc(C(C)(C)C)cc9)ccc7-8)ccc5-6)ccc3-4)cc21`, the photoluminescence quantum yield (in C1CCCCC1) was determined as 1.

`CC1=CC(C)=[N+]2C1=C(c1ccc(I)cc1)c1c(C)cc(C)n1[B-]21Oc2ccccc2O1`: the photoluminescence quantum yield (in ClC(Cl)Cl) came out at 0.

Where the note is “in CS(C)=O”, `CCOC(=O)C1=C(N)n2c(=O)c3ccccc3c(=O)n2C1c1ccccc1` (stereo unspecified) returned a photoluminescence quantum yield of 0.136.

`Cc1ccc2c(c1)nc1c(=O)n(C)c(=O)nc-1n2C` registered a photoluminescence quantum yield (in CC#N) of 0.43.
